Measured values from the supplement of paper PMC10627819.

Tests used:
S. aureus Newman [1] = assay: fitness (endpoint OD595 vs no drug) (fraction); higher = more growth
How it was run: (§1)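 With the first reading as background, OD595 was measured every 30 min for 14 h in 384-well plates kept at 37 °C and inoculated at OD595 0.01. TSB, LB Lennox or CY was the medium. Fitness is the optical density at the transition into stationary phase divided by the robust mean of no-drug control wells, with a cap of 1.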

S. aureus DSM 20231 [2] = assay: as above
How it was run: as §1

B. subtilis 168 = assay: Bliss interaction score (quartile over a dose matrix) (fitness difference); higher = more antagonism (negative = synergy)
How it was run: (§2)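 Values were capped at 1 after dividing OD595 at stationary-phase entry by the plate's robust no-drug mean. This ratio is fitness, and single-drug fitness was inferred from the combination data. The Bliss score is observed minus product-expected fitness, given as quartiles over technical, biological and donor/recipient replicates.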

S. aureus Newman [3] = assay: as above
How it was run: as §2

S. pneumoniae D39V [4] = assay: as above
How it was run: as §2

S. aureus DSM 20231 [5] = assay: as above
How it was run: as §2

S. pneumoniae D39V [6] = assay: fitness (endpoint OD595 vs no drug) (fraction); higher = more growth
How it was run: as §1
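For Bliss interaction score (quartile over a dose matrix) in this document: first quartile when negative (synergy) and third quartile when positive (antagonism).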

CC1(C)S[C@@H]2[C@H](NC(=O)[C@H](N)c3ccc(O)cc3)C(=O)N2[C@H]1C(=O)O [Amoxicillin] + CCCCCCCCCC(=O)N[C@@H]1[C@H]([C@@H]([C@H](O[C@H]1OC2=C3C=C4C=C2OC5=C(C=C(C=C5)[C@H]([C@H]6C(=O)N[C@@H](C7=C(C(=CC(=C7)O)OC8[C@H]([C@H]([C@@H]([C@H](O8)CO)O)O)O)C9=C(C=CC(=C9)[C@H](C(=O)N6)NC(=O)[C@@H]4NC(=O)[C@@H]1C2=CC(=CC(=C2)OC2=C(C=CC(=C2)[C@H](C(=O)N[C@H](CC2=CC(=C(O3)C=C2)Cl)C(=O)N1)N)O)O)O)C(=O)O)O[C@H]1[C@@H]([C@H]([C@@H]([C@H](O1)CO)O)O)NC(=O)C)Cl)CO)O)O [Teicoplanin]
fitness, main component drawn
Conditions	first compound 0.0625 µg/mL	first compound 0.125 µg/mL	first compound 0.25 µg/mL
S. aureus DSM 20231 [2], partner 0.1562 µg/mL	0.575	0.408	0.199
S. aureus DSM 20231 [2], partner 0.3125 µg/mL	0.658	–	–
S. aureus DSM 20231 [2], partner 0.625 µg/mL	0.619	–	0.0287
S. aureus Newman [1], partner 0.1562 µg/mL	0.947	0.94	0.848
S. aureus Newman [1], partner 0.3125 µg/mL	0.898	0.913	0.815
S. aureus Newman [1], partner 0.625 µg/mL	0.823	0.853	0.73

fitness, one replicate, main component drawn
Conditions	partner 0.1562 µg/mL	partner 0.3125 µg/mL	partner 0.62 µg/mL	partner 0.625 µg/mL	partner 1.24 µg/mL	partner 2.48 µg/mL
S. aureus DSM 20231 [2], first compound 0.5 µg/mL	0.0188	0.0061	–	0.0019	–	–
S. aureus Newman [1], first compound 0.125 µg/mL	–	–	0.747	–	0.689	0.396
S. aureus Newman [1], first compound 0.25 µg/mL	–	–	0.725	–	0.785	0.491
S. aureus Newman [1], first compound 0.5 µg/mL	–	–	0.724	–	0.684	0.462

main component drawn
Conditions	Bliss interaction score
B. subtilis 168	-0.1
S. aureus DSM 20231 [5]	0.0453
S. aureus Newman [3]	0.0682
S. pneumoniae D39V [4]	-0.0856

CC1(C)S[C@@H]2[C@H](NC(=O)[C@H](N)c3ccc(O)cc3)C(=O)N2[C@H]1C(=O)O [Amoxicillin] + CCC[C@@H]1C[C@@H](C(=O)N[C@@H]([C@H]2O[C@H](SC)[C@H](O)[C@@H](O)[C@H]2O)[C@H](C)Cl)N(C)C1 [Clindamycin]
Conditions	fitness
S. aureus DSM 20231 [2], first compound 0.0625 µg/mL, partner 0.0625 µg/mL	0.132
S. aureus DSM 20231 [2], first compound 0.0625 µg/mL, partner 0.125 µg/mL	0.0693
S. aureus DSM 20231 [2], first compound 0.125 µg/mL, partner 0.0312 µg/mL	0.157
S. aureus DSM 20231 [2], first compound 0.125 µg/mL, partner 0.0625 µg/mL	0.0589
S. aureus DSM 20231 [2], first compound 0.125 µg/mL, partner 0.125 µg/mL	0.0684
S. aureus DSM 20231 [2], first compound 0.25 µg/mL, partner 0.0312 µg/mL	0.0508
S. aureus DSM 20231 [2], first compound 0.25 µg/mL, partner 0.0625 µg/mL	0.038
S. aureus DSM 20231 [2], first compound 0.25 µg/mL, partner 0.125 µg/mL	0.0621
S. aureus DSM 20231 [2], first compound 0.5 µg/mL, partner 0.0312 µg/mL	0.0205
S. aureus DSM 20231 [2], first compound 0.5 µg/mL, partner 0.0625 µg/mL	0.0091
S. aureus DSM 20231 [2], first compound 0.5 µg/mL, partner 0.125 µg/mL	0.0231
S. aureus Newman [1], first compound 0.0625 µg/mL, partner 0.0312 µg/mL	0.698
S. aureus Newman [1], first compound 0.125 µg/mL, partner 0.125 µg/mL	0.0978
S. pneumoniae D39V [6], first compound 0.0008 µg/mL, partner 0.0125 µg/mL	0.796
S. pneumoniae D39V [6], first compound 0.0008 µg/mL, partner 0.025 µg/mL	0.519
S. pneumoniae D39V [6], first compound 0.0008 µg/mL, partner 0.05 µg/mL	0.203
S. pneumoniae D39V [6], first compound 0.0015 µg/mL, partner 0.0125 µg/mL	0.77
S. pneumoniae D39V [6], first compound 0.0015 µg/mL, partner 0.015 µg/mL	0.92
S. pneumoniae D39V [6], first compound 0.0015 µg/mL, partner 0.025 µg/mL	0.488
S. pneumoniae D39V [6], first compound 0.0015 µg/mL, partner 0.03 µg/mL	0.757
S. pneumoniae D39V [6], first compound 0.0015 µg/mL, partner 0.05 µg/mL	0.186
S. pneumoniae D39V [6], first compound 0.0015 µg/mL, partner 0.06 µg/mL	0.539
S. pneumoniae D39V [6], first compound 0.003 µg/mL, partner 0.0125 µg/mL	0.77
S. pneumoniae D39V [6], first compound 0.003 µg/mL, partner 0.015 µg/mL	0.872
S. pneumoniae D39V [6], first compound 0.003 µg/mL, partner 0.025 µg/mL	0.482
S. pneumoniae D39V [6], first compound 0.003 µg/mL, partner 0.03 µg/mL	0.726
S. pneumoniae D39V [6], first compound 0.003 µg/mL, partner 0.05 µg/mL	0.186
S. pneumoniae D39V [6], first compound 0.003 µg/mL, partner 0.06 µg/mL	0.509

fitness, S. pneumoniae D39V [6], one replicate
Conditions	partner 0.015 µg/mL	partner 0.03 µg/mL	partner 0.06 µg/mL
first compound 0.0008 µg/mL	0.962	0.84	0.557
first compound 0.006 µg/mL	0.505	0.385	0.298

Conditions	Bliss interaction score
B. subtilis 168	-0.0391
S. aureus DSM 20231 [5]	0.0324
S. aureus Newman [3]	-0.0717
S. pneumoniae D39V [4]	0.151
